#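 Compound exposure: 48 hours, 5 concentrations, 96-well plates. GI50: concentration for 50% inhibition of growth. At the TGI there is no net growth.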
# Key:
# Assay in all cases: DTP human tumour cell line panel, 48 h
# SF-539 CNS = test system: SF-539 CNS
# A549 NSCLC = test system: A549 NSCLC
# NCI-H460 lung = test system: NCI-H460 lung
# TK-10 renal = test system: TK-10 renal
# NCI/ADR-RES ovarian = test system: NCI/ADR-RES ovarian
# HOP-62 NSCLC = test system: HOP-62 NSCLC
# SK-MEL-28 melanoma = test system: SK-MEL-28 melanoma
# HOP-92 NSCLC = test system: HOP-92 NSCLC
SMILES,GI50 (SF-539 CNS) [µM],TGI (SF-539 CNS) [µM],GI50 (A549 NSCLC) [µM],TGI (A549 NSCLC) [µM],GI50 (NCI-H460 lung) [µM],TGI (NCI-H460 lung) [µM],GI50 (TK-10 renal) [µM],TGI (TK-10 renal) [µM],GI50 (NCI/ADR-RES ovarian) [µM],TGI (NCI/ADR-RES ovarian) [µM],GI50 (HOP-62 NSCLC) [µM],TGI (HOP-62 NSCLC) [µM],GI50 (SK-MEL-28 melanoma) [µM],TGI (SK-MEL-28 melanoma) [µM],GI50 (HOP-92 NSCLC) [µM],TGI (HOP-92 NSCLC) [µM]
CCCOC(=O)N[C@H]1CCc2c(Br)c(OC)c(OC)c(OC)c2-c2ccc(SC)c(=O)cc21,0.0213,0.0688,0.0395,> 68.4,0.0306,2.02,4.67,> 76.6,0.0345,> 57.4,0.0633,> 100,2.83,23.2,0.0411,6.28
CCC(=O)Sc1ccccc1C(=O)Nc1ccc(Cl)cc1,11.2,30.5,11.7,> 100,4.84,36,22.9,76.9,6.45,38,12.5,34.2,9.33,57.7,2.52,9.67
COC1=CC(c2ccc[nH]2)=N/C1=C\c1[nH]c(C)c(C(=O)CCC(=O)Oc2ccc3c(c2)CCC2C3CC[C@]3(C)C(=O)CC[C@@H]23)c1C (stereo partly drawn),14.3,> 100,2.65,> 100,3.07,> 100,25.2,> 92,12.6,> 100,18.2,66,> 70.9,> 100,2.09,16.5
COc1ccc(/C=C2/CN(C(=O)c3ccccc3F)C/C(=C\c3ccc(OC)cc3)C2=O)cc1,3.65,14.6,4.83,34.3,8.81,30.8,4.95,17.7,3.49,82.5,3.77,14.6,2.72,7.93,10.3,39.6
COCCNCC(O)Cn1c2ccc(Cl)cc2c2cc(Cl)ccc21 (stereo not drawn),1.8,3.43,1.79,3.74,1.86,3.6,1.79,3.37,2.39,5.59,1.87,3.45,1.73,3.25,1.57,5.17
COc1ccc2c(c1)Oc1nc(N)c(C#N)c(N)c1C2Sc1ccc(SC)cc1 (stereo not drawn),1.72,3.11,2,3.91,2.04,4.05,1.77,3.17,2.42,6.05,1.83,3.49,1.71,3.15,1.94,3.56
COc1ccc2c(c1)C(=O)c1c-2c(NCCCN(C)C)nc2ccccc12,10.8,24.6,1.86,6,1.33,2.76,4.33,18.3,4.03,19.4,5.93,19.9,0.524,1.94,1.15,8.6
COc1cc2c(cc1OC)C13CCN4CC5=CCOC(CC(=O)O)C(C5CC41)C3N2 (stereo not drawn),–,> 100,–,> 100,–,> 100,–,> 100,–,> 100,–,> 100,–,> 100,–,> 100
COc1cc(OC)c(-c2cc(=O)c3c(OC)c(OC)c(OC)c(OC)c3o2)cc1OC,–,> 100,–,> 100,–,> 100,–,> 100,–,> 100,–,> 100,–,> 100,–,59
O=C1c2ccn(CCCCN3CCOCC3)c2C(=O)c2c1c(O)c1ccccc1c2O,–,–,14.4,38.7,12.3,28.4,1.56,7.7,4.44,23.8,14.7,34.5,25.8,> 100,–,–
C[C@@H]1O[C@@H](O[C@H]2C[C@@H](O)[C@]3(CO)C4C(CC[C@]3(O)C2)[C@@]2(O)CC[C@H](C3=CC(=O)OC3)[C@@]2(C)C[C@H]4O)[C@H](O)[C@H](O)[C@H]1O (stereo partly drawn),0.0185,0.0599,0.00907,0.0172,0.0133,0.0376,0.0148,0.0384,0.0154,0.0452,0.0137,0.0385,0.0881,0.164,0.0597,0.25
CN(C)c1c(Cl)c(=O)oc2c1ccc1nc(-c3ccccc3)sc12,–,> 100,–,> 100,–,> 100,–,> 100,–,> 100,–,> 100,–,> 100,–,> 100
O=C1C(=O)c2ccc(Br)cc2-c2cc(Br)ccc21,8.43,26.3,5.37,> 95.6,4.5,> 89.2,22.7,> 100,1.59,8.12,8.44,> 45.6,5.52,> 55.5,1.36,9.5
CC(C)C1CN1CC(O)Cn1ccnc1[N+](=O)[O-] (stereo not drawn),–,> 100,–,> 100,–,> 100,–,> 100,–,> 100,–,> 100,–,> 100,–,–
CC1=CC[C@@H]2[C@@H](CC[C@@]2(C)O)C(C)(C)[C@H]1CC[C@@H]1[C@@]2(C)CCC(=O)C(C)(C)O[C@@H]2CC[C@]1(C)O,–,36.5,–,> 100,–,35.8,–,> 100,–,60.9,–,> 100,–,> 100,–,–
CN(C(=O)C1CCCCC1)c1ccccc1I(=O)=O,39.2,> 100,55.9,> 100,48,> 100,27.4,> 100,35.9,> 100,–,–,22.8,56.9,26.1,67
